Patent US20240381871A1, “5-HALOALKOXY-PYRIMIDINE COMPOUNDS AS HERBICIDES” (SYNGENTA CROP PROTECTION AG, priority 2020, published 2024)

Tests used:
Format in all cases: in vivo
Zea mays (ZEAMX) = assay: Comparative post-emergence test, crop damage; settings: 336 h, after 14 days, read-out: ZEAMX damage (100=total damage to plant; 0=no damage)
Description: (§1) Seeds of test species were sown in standard soil in pots. After cultivation for 10 days (post-emergence) under controlled conditions in a glasshouse (at 24/16° C., day/night; 14 hours light; 65% humidity), the plants were sprayed with an aqueous spray solution derived from the formulation of the technical active ingredient in 0.6 ml acetone and 45 ml formulation solution containing 10.6% Emulsogen EL (Registry number 61791-12-6), 42.2% N-methyl pyrrolidone, 42.2% dipropylene glycol monomethyl ether (CAS RN 34590-94-8) and 0.2% X-77 (CAS RN 11097-66-8). The test plants were then grown in a glasshouse under controlled conditions in a glasshouse (at 24/16° C., day/night; 14 hours light; 65% humidity) and watered twice daily. After 14 days, the test was evaluated (100=total damage to plant; 0=no damage to plant). • Weeds: Ipomea hederacea (IPOHE) • Crops: Zea mays (ZEAMX)

Ipomea hederacea (IPOHE) = assay: Comparative post-emergence test, weed control; settings: Ipomoea hederacea, 336 h, after 14 days, read-out: IPOHE damage (100=total damage to plant; 0=no damage)
Description: as §1

[1] = system: Abutilon theophrasti (ABUTH); assay: Post-emergence herbicidal glasshouse test; settings: rate 250, evaluated after 13 days, the values are:
Description: (§2) Seeds of a variety of test species are sown in standard soil in pots, Amaranthus retoflexus (AMARE), Abutilon theophrasti (ABUTH), Setaria faberi (SETFA), Echinochloa crus-galli (ECHCG) and Ipomoea hederacea (IPOHE). After cultivation for one day (pre-emergence) or after 8 days cultivation (post-emergence) under controlled conditions in a glasshouse (at 24/16° C., day/night; 14 hours light; 65% humidity), the plants are sprayed with an aqueous spray solution derived from the formulation of the technical active ingredient in acetone/water (50:50) solution containing 0.5% Tween 20 (polyoxyethelyene sorbitan monolaurate, CAS RN 9005-64-5). Compounds are applied at 1000 g/ha unless otherwise stated. The test plants are then grown in a glasshouse under controlled conditions in a glasshouse (at 24/16° C., day/night; 14 hours light; 65% humidity) and watered twice daily. After 13 days for pre and post-emergence, the test is evaluated for the percentage damage caused to the plant.

[2] = system: Amaranthus retoflexus (AMARE); assay: Post-emergence herbicidal glasshouse test; settings: rate 250, evaluated after 13 days, the values are: phytotoxicity score (1-5 scale)
Description: as §2

[3] = system: Echinochloa crus-galli (ECHCG); assay: Post-emergence herbicidal glasshouse test; settings: rate 250, evaluated after 13 days, the values are: phytotoxicity score (1-5 scale)
Description: as §2

[4] = system: Ipomoea hederacea (IPOHE); assay: Post-emergence herbicidal glasshouse test; settings: rate 250, evaluated after 13 days, the values are: phytotoxicity score (1-5 scale)
Description: as §2

Setaria faberi (SETFA) [5] = assay: Post-emergence herbicidal glasshouse test; settings: rate 250, evaluated after 13 days, the values are:
Description: as §2

[6] = system: Abutilon theophrasti (ABUTH); assay: Pre-emergence herbicidal glasshouse test; settings: rate 250, evaluated after 13 days, the values are:
Description: as §2

[7] = system: Amaranthus retoflexus (AMARE); assay: Pre-emergence herbicidal glasshouse test; settings: rate 250, evaluated after 13 days, the values are:
Description: as §2

[8] = system: Echinochloa crus-galli (ECHCG); assay: Pre-emergence herbicidal glasshouse test; settings: rate 250, evaluated after 13 days, the values are: phytotoxicity score (1-5)
Description: as §2

[9] = system: Ipomoea hederacea (IPOHE); assay: Pre-emergence herbicidal glasshouse test; settings: rate 250, evaluated after 13 days, the values are:
Description: as §2

Setaria faberi (SETFA) [10] = assay: Pre-emergence herbicidal glasshouse test; settings: rate 250, evaluated after 13 days, the values are: phytotoxicity score (1-5)
Description: as §2

## COc1cnc(Oc2cccc(Cl)c2-c2cc(C(F)F)no2)nc1
Zea mays (ZEAMX)
  plant injury at 2 g/ha: 0%
  plant injury at 8 g/ha: 0%
  plant injury at 60 g/ha: 10%
  plant injury at 125 g/ha: 20%
  plant injury at 250 g/ha: 30%
Ipomea hederacea (IPOHE)
  pest or weed control at 2 g/ha: 20%
  pest or weed control at 8 g/ha: 30%
  pest or weed control at 60 g/ha: 20%
  pest or weed control at 125 g/ha: 50%
  pest or weed control at 250 g/ha: 60%

## FC(F)Oc1cnc(Oc2cccc(Br)c2CCCC(F)(F)F)nc1 [Compound 1.024]
[1]
  Post-emergence activity ABUTH (% phytotoxicity): 1
[2]
  Post-emergence activity AMARE (% phytotoxicity): 2
[3]
  Post-emergence activity ECHCG (% phytotoxicity): 1
[4]
  Post-emergence activity IPOHE (% phytotoxicity): 1
Setaria faberi (SETFA) [5]
  Post-emergence activity SETFA (% phytotoxicity): 1
[6]
  Pre-emergence activity ABUTH (% phytotoxicity): 1
[7]
  Pre-emergence activity AMARE (% phytotoxicity): 2
[8]
  Pre-emergence activity ECHCG (% phytotoxicity): 1
[9]
  Pre-emergence activity IPOHE (% phytotoxicity): 1
Setaria faberi (SETFA) [10]
  Pre-emergence activity SETFA (% phytotoxicity): 1

## Fc1cccc(Oc2ncc(OC(F)F)cn2)c1-c1cc(C(F)F)no1 [Compound 1.001, 5-[2-[5-(difluoromethoxy)pyrimidin-2-yl]oxy-6-fluoro-phenyl]-3-(difluoromethyl)isoxazole]
[1]
  Post-emergence activity ABUTH (% phytotoxicity): 3
[2]
  Post-emergence activity AMARE (% phytotoxicity): 4
[4]
  Post-emergence activity IPOHE (% phytotoxicity): 3
Setaria faberi (SETFA) [5]
  Post-emergence activity SETFA (% phytotoxicity): 4
[6]
  Pre-emergence activity ABUTH (% phytotoxicity): 5
[7]
  Pre-emergence activity AMARE (% phytotoxicity): 5
[9]
  Pre-emergence activity IPOHE (% phytotoxicity): 5
Setaria faberi (SETFA) [10]
  Pre-emergence activity SETFA (% phytotoxicity): 5
Zea mays (ZEAMX)
  plant injury at 8 g/ha: 0%
  plant injury at 60 g/ha: 20%
  plant injury at 125 g/ha: 10%
  plant injury at 250 g/ha: 20%
  plant injury at 500 g/ha: 40%
Ipomea hederacea (IPOHE)
  pest or weed control at 2 g/ha: 30%
  pest or weed control at 8 g/ha: 20%
  pest or weed control at 60 g/ha: 70%
  pest or weed control at 125 g/ha: 80%
  pest or weed control at 250 g/ha: 90%
  pest or weed control at 500 g/ha: 100%

## FC(F)Oc1cnc(Oc2cccc(Cl)c2CCCC(F)(F)F)nc1 [Compound 1.023, 2-[3-chloro-2-(4,4,4-trifluorobutyl)phenoxy]-5-(difluoromethoxy)pyrimidine]
[1]
  Post-emergence activity ABUTH (% phytotoxicity): 1
[2]
  Post-emergence activity AMARE (% phytotoxicity): 1
[3]
  Post-emergence activity ECHCG (% phytotoxicity): 1
[4]
  Post-emergence activity IPOHE (% phytotoxicity): 1
Setaria faberi (SETFA) [5]
  Post-emergence activity SETFA (% phytotoxicity): 1
[6]
  Pre-emergence activity ABUTH (% phytotoxicity): 1
[7]
  Pre-emergence activity AMARE (% phytotoxicity): 1
[8]
  Pre-emergence activity ECHCG (% phytotoxicity): 1
[9]
  Pre-emergence activity IPOHE (% phytotoxicity): 1
Setaria faberi (SETFA) [10]
  Pre-emergence activity SETFA (% phytotoxicity): 1

## O=C(CCC(F)(F)F)c1c(Br)cccc1Oc1ncc(OC(F)F)cn1 [Compound 1.028]
[1]
  Post-emergence activity ABUTH (% phytotoxicity): 2
[2]
  Post-emergence activity AMARE (% phytotoxicity): 5
[3]
  Post-emergence activity ECHCG (% phytotoxicity): 1
[4]
  Post-emergence activity IPOHE (% phytotoxicity): 2
Setaria faberi (SETFA) [5]
  Post-emergence activity SETFA (% phytotoxicity): 1
[6]
  Pre-emergence activity ABUTH (% phytotoxicity): 2
[7]
  Pre-emergence activity AMARE (% phytotoxicity): 5
[8]
  Pre-emergence activity ECHCG (% phytotoxicity): 1
[9]
  Pre-emergence activity IPOHE (% phytotoxicity): 1
Setaria faberi (SETFA) [10]
  Pre-emergence activity SETFA (% phytotoxicity): 5

## COc1cnc(Oc2cccc(C#N)c2-c2cc(C(F)F)no2)nc1
Zea mays (ZEAMX)
  plant injury at 2 g/ha: 0%
  plant injury at 8 g/ha: 0%
  plant injury at 60 g/ha: 0%
  plant injury at 125 g/ha: 10%
  plant injury at 250 g/ha: 10%
  plant injury at 500 g/ha: 40%
Ipomea hederacea (IPOHE)
  pest or weed control at 2 g/ha: 10%
  pest or weed control at 8 g/ha: 30%
  pest or weed control at 60 g/ha: 40%
  pest or weed control at 125 g/ha: 50%
  pest or weed control at 250 g/ha: 50%
  pest or weed control at 500 g/ha: 60%

## COc1cnc(Oc2cccc(F)c2-c2cc(C(F)F)no2)nc1
Zea mays (ZEAMX)
  plant injury at 2 g/ha: 0%
  plant injury at 8 g/ha: 0%
  plant injury at 60 g/ha: 10%
  plant injury at 125 g/ha: 10%
  plant injury at 250 g/ha: 10%
  plant injury at 500 g/ha: 40%
Ipomea hederacea (IPOHE)
  pest or weed control at 2 g/ha: 10%
  pest or weed control at 8 g/ha: 10%
  pest or weed control at 60 g/ha: 20%
  pest or weed control at 125 g/ha: 50%
  pest or weed control at 250 g/ha: 60%
  pest or weed control at 500 g/ha: 70%

## N#Cc1cccc(Oc2ncc(OC(F)F)cn2)c1CCCC(F)(F)F [Compound 1.025]
[1]
  Post-emergence activity ABUTH (% phytotoxicity): 1
[2]
  Post-emergence activity AMARE (% phytotoxicity): 2
[3]
  Post-emergence activity ECHCG (% phytotoxicity): 1
[4]
  Post-emergence activity IPOHE (% phytotoxicity): 1
Setaria faberi (SETFA) [5]
  Post-emergence activity SETFA (% phytotoxicity): 1
[6]
  Pre-emergence activity ABUTH (% phytotoxicity): 1
[7]
  Pre-emergence activity AMARE (% phytotoxicity): 1
[8]
  Pre-emergence activity ECHCG (% phytotoxicity): 1
[9]
  Pre-emergence activity IPOHE (% phytotoxicity): 1
Setaria faberi (SETFA) [10]
  Pre-emergence activity SETFA (% phytotoxicity): 1

## O=C(CCC(F)(F)F)c1c(Cl)cccc1Oc1ncc(OC(F)F)cn1 [Compound 1.027, 1-[2-chloro-6-[5-(difluoromethoxy)pyrimidin-2-yl]oxy-phenyl]-4,4,4-trifluoro-butan-1-one]
[1]
  Post-emergence activity ABUTH (% phytotoxicity): 3
[2]
  Post-emergence activity AMARE (% phytotoxicity): 4
[3]
  Post-emergence activity ECHCG (% phytotoxicity): 1
[4]
  Post-emergence activity IPOHE (% phytotoxicity): 3
Setaria faberi (SETFA) [5]
  Post-emergence activity SETFA (% phytotoxicity): 1
[6]
  Pre-emergence activity ABUTH (% phytotoxicity): 3
[7]
  Pre-emergence activity AMARE (% phytotoxicity): 4
[8]
  Pre-emergence activity ECHCG (% phytotoxicity): 2
[9]
  Pre-emergence activity IPOHE (% phytotoxicity): 1
Setaria faberi (SETFA) [10]
  Pre-emergence activity SETFA (% phytotoxicity): 4

## COc1cnc(Oc2cccc(Br)c2-c2cc(C(F)F)no2)nc1
Zea mays (ZEAMX)
  plant injury at 2 g/ha: 0%
  plant injury at 8 g/ha: 0%
  plant injury at 60 g/ha: 0%
  plant injury at 125 g/ha: 10%
  plant injury at 250 g/ha: 30%
Ipomea hederacea (IPOHE)
  pest or weed control at 2 g/ha: 10%
  pest or weed control at 8 g/ha: 30%
  pest or weed control at 60 g/ha: 50%
  pest or weed control at 125 g/ha: 50%
  pest or weed control at 250 g/ha: 60%

## COc1cnc(Oc2ccccc2-c2cc(C(F)F)no2)nc1 [Compound 213]
Zea mays (ZEAMX)
  plant injury at 2 g/ha: 0%
  plant injury at 8 g/ha: 0%
  plant injury at 60 g/ha: 0%
  plant injury at 125 g/ha: 0%
  plant injury at 250 g/ha: 0%
  plant injury at 500 g/ha: 20%
Ipomea hederacea (IPOHE)
  pest or weed control at 2 g/ha: 0%
  pest or weed control at 8 g/ha: 10%
  pest or weed control at 60 g/ha: 20%
  pest or weed control at 125 g/ha: 30%
  pest or weed control at 250 g/ha: 40%
  pest or weed control at 500 g/ha: 50%

## Fc1cccc(Oc2ncc(OC(F)(F)F)cn2)c1-c1cc(C(F)F)no1 [Compound 1.002, 3-(difluoromethyl)-5-[2-fluoro-6-[5-(trifluoromethoxy)pyrimidin-2-yl]oxy-phenyl]isoxazole]
[1]
  Post-emergence activity ABUTH (% phytotoxicity): 4
[2]
  Post-emergence activity AMARE (% phytotoxicity): 4
[3]
  Post-emergence activity ECHCG (% phytotoxicity): 4
[4]
  Post-emergence activity IPOHE (% phytotoxicity): 3
Setaria faberi (SETFA) [5]
  Post-emergence activity SETFA (% phytotoxicity): 4
[6]
  Pre-emergence activity ABUTH (% phytotoxicity): 5
[7]
  Pre-emergence activity AMARE (% phytotoxicity): 5
[8]
  Pre-emergence activity ECHCG (% phytotoxicity): 4
[9]
  Pre-emergence activity IPOHE (% phytotoxicity): 4
Setaria faberi (SETFA) [10]
  Pre-emergence activity SETFA (% phytotoxicity): 5
